Laboratory results taken from the CheMixHub drug solubility set.

Assay: xn = mol fraction of the nth substance listed, in the solute-free solvent

Nc1cncc(Cl)n1 + CN(C)C=O + O
solubility (g/100 g solution)
Settings | 278.15 K | 283.15 K | 288.15 K | 293.15 K | 298.15 K | 303.15 K | 308.15 K | 313.15 K | 318.15 K | 323.15 K
x2 = 0.02666 | – | – | – | – | – | – | – | – | – | 0.136
x2 = 0.05806 | – | – | – | – | – | – | – | – | – | 0.386
x2 = 0.09556 | 0.711 | 0.836 | 0.963 | 1.12 | 1.29 | 1.5 | 1.71 | 1.95 | 2.21 | 2.52
x2 = 0.1412 | 1 | 1.18 | 1.36 | 1.59 | 1.83 | 2.13 | 2.43 | 2.78 | 3.15 | 3.58
x2 = 0.1978 | 1.13 | 1.35 | 1.6 | 1.86 | 2.18 | 2.55 | 2.94 | 3.38 | 3.84 | 4.38
x2 = 0.27 | 1.26 | 1.53 | 1.81 | 2.13 | 2.52 | 2.94 | 3.38 | 3.91 | 4.51 | 5.2
x2 = 0.3652 | 1.39 | 1.68 | 2.03 | 2.4 | 2.83 | 3.31 | 3.89 | 4.51 | 5.18 | 5.97
x2 = 0.4965 | 1.5 | 1.85 | 2.23 | 2.67 | 3.17 | 3.69 | 4.34 | 5.06 | 5.84 | 6.7
x2 = 0.6893 | 1.59 | 1.97 | 2.39 | 2.87 | 3.39 | 3.97 | 4.66 | 5.5 | 6.38 | 7.36

CCCCOc1ccc(C(=O)CCN2CCCCC2)cc1.Cl + CO + C1CCOC1
solubility (g/100 g solution)
Settings | 278.15 K | 283.15 K | 288.15 K | 293.15 K | 298.15 K | 303.15 K | 308.15 K | 313.15 K | 318.15 K | 323.15 K
x2 = 0.1 | 3.9 | 4.4 | 4.97 | 5.64 | 6.4 | 7.23 | 8.14 | 9.22 | 10.4 | 11.6
x2 = 0.2 | 7.86 | 8.84 | 9.92 | 11.2 | 12.4 | 13.9 | 15.5 | 17.2 | 19.1 | 21.1
x2 = 0.3 | 12 | 13.4 | 14.9 | 16.6 | 18.4 | 20.5 | 22.6 | 24.9 | 27.4 | 30
x2 = 0.4 | 16.3 | 18.1 | 20.1 | 22.3 | 24.6 | 27 | 29.6 | 32.5 | 35.4 | 38.5
x2 = 0.5 | 20.8 | 23.1 | 25.4 | 28 | 30.6 | 33.5 | 36.5 | 39.6 | 42.8 | 46.2
x2 = 0.6 | 25.5 | 28.2 | 30.8 | 33.7 | 36.7 | 39.8 | 43 | 46.4 | 49.9 | 53.3
x2 = 0.7 | 30.6 | 33.5 | 36.5 | 39.6 | 42.9 | 46.2 | 49.6 | 53 | 56.5 | 59.9
x2 = 0.8 | 35.7 | 38.9 | 42 | 45.4 | 48.7 | 52.1 | 55.5 | 59 | 62.5 | 65.8
x2 = 0.9 | 41.3 | 44.6 | 48 | 51.3 | 54.7 | 58.1 | 61.5 | 64.9 | 68 | 71.3
